# US12329883B2, “Soft tissue repair implants comprising hydroxybutyrate” (Davol Inc., priority 2017, dated 2025)
# Tested on: cathelicidin LL-37 expression
# Experiment: cathelicidin LL-37 immunolabeling of primary macrophages exposed for 18 hours to samples
# Type: cell-based, C57bl/6 mice
# Settings: primary bone marrow-derived macrophages, 18 hours exposure
# Description: Primary macrophages were differentiated from mononuclear cells harvested from the bone marrow of C57bl/6 mice. A solution of these primary macrophages was divided into 18 wells, each of which was exposed for 18 hours to one of samples nos. 1-18; i.e., a composition comprising either a species of interest dissolved in cell growth media or a solubilized biological scaffold dissolved in cell growth media. […]
# After immunolabeling preparation, images were taken of the counterstained macrophages for three 20× fields for each well using a Zeus live-cell microscope. […] The light exposure time that produced the best images was determined, and the remaining samples were imaged at this light exposure time.
# After immunolabeling, each macrophage nucleus appeared blue in the immunolabeling images and cathelicidin LL-37 appeared green. The percentages of macrophages expressing cathelicidin LL-37 shown in FIG. 7 were calculated by dividing the number of cathelicidin LL-37-expressing cells in each image (determined by the number of blue nuclei located in close proximity to green cathelicidin LL-37) by the number of cells in each image (determined by the number of blue nuclei in each image). The identification of cathelicidin LL-37 and cell nuclei in the images was determined with the aid of CellProfiler, a […] software analyzer (available at http://www.cellprofiler.org). […]
structure (smiles),measurement,setting,value
O=C(O)CCCO [4-hydroxybutyrate],"cathelicidin LL-37 expression (percent of cathelicidin LL-37 expressing cells, FIG. 6 and FIG. 7)","Example 1, 4HB 12 mM",strongly promoted
same,"cathelicidin LL-37 expression (percent of cathelicidin LL-37 expressing cells, FIG. 8 and FIGS. 9-16)","Example 2, concentration series of Table 2",effectively induce
